Laboratory results taken from publication PMC11466185, “Mechanisms and efficacy of small molecule latency-promoting agents to inhibit HIV reactivation ex vivo” (JCI Insight, 2024).
“And” between values parts separate entries of the source, which are not always exact repeats. Equal entries are not always repeated.

Columns and labels:
[1] = system: PBMCs; format: cell-based, human; conditions: 5nM; 6 days after αCD3/28 activation; each row one participant
Procedure: Next, we evaluated the ability of the candidate LPAs to sustain the inhibitory effects during a prolonged ex vivo culture. To this end, PBMCs were cultured in the presence of individual drugs in DMSO or in DMSO alone as control, activated (anti-CD3/CD28), and harvested after 6 days. […] However, we decided to test the drug on day 6 because extra cells were available from some study participants.
For quantification of cell-associated HIV transcripts, PBMCs were harvested either after 24 hours or after 6 days. The cell viabilities were measured by trypan blue staining; then the cells were pelleted by centrifuging at 300g for 6 minutes and stored at –80°C. For quantification of virion-associated HIV RNA, cell culture supernatant was collected from 6 × 10^6 PBMCs that were treated and activated for 6 days as described above. Residual cells and cellular debris were subsequently removed from the supernatant by differential centrifugation (300g for 6 minutes, then 20,000g for 10 minutes), and the supernatant was stored at –80°C.
A) After six days, the viability was measured by trypan blue staining and then normalized to the levels of the activated DMSO (% of activated DMSO). Bars indicate medians and different colors indicate individual study participants. B-F) Each drug was tested in PBMCs from at least six ART-suppressed study participants (except for KRIBB11, n=5) and the PBMCs were aliquoted into wells at 6x10^6 cells/well. After activation, the cells were cultured with antiretrovirals in the presence of individual drugs in DMSO or DMSO alone as control. After six days, total RNA was extracted and the progression through different stages of HIV transcription was (1 picture or pasted object on this page, not shown here)

[2] = system: HIV transcripts (TAR, LLTR, Pol, PolyA, TatRev); assay: Latency reversal assay: cell-associated HIV transcripts (RT-ddPCR) 24 hours after anti-CD3/CD28 activation of PBMCs from ART-suppressed PWH; format: cell-based; set-up: key to TatRev: % of activated DMSO control, normalized to 1 μg total RNA; Elongated (LLTR) HIV transcripts, median relative to activated DMSO, initial screening / Midtranscribed (Pol) HIV transcripts, median relative to activated DMSO, initial screening / Multiply spliced (TatRev) HIV transcripts, median relative to activated DMSO, initial screening: concentration or dose not given beside the values; conditions: for Pol HIV transcripts (DMSO αCD3/28 = 100) / PolyA HIV transcripts (DMSO αCD3/28 = 100) / TatRev HIV transcripts (DMSO αCD3/28 = 100): αCD3/28-activated, ruxolitinib 4μM, triptolide 25-50nM, alvocidib 40nM, dinaciclib 8nM, AZD4573 8nM, quercetin 5μM, pladienolide B 10nM, isoginkgetin 25μM, herboxidiene 5nM, KRIBB11 2.5μM, tanespimycin 5μM, mithramycin A 25nM; for PolyA / TatRev: DMSO+αCD3/28 = 100, Fig 3A; for LLTR/TAR / PolyA/LLTR / TatRev/PolyA: DMSO+CD3/28 = 1, Fig 3B, C and D
Outline: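 PBMCs from ART-suppressed people with HIV (6 × 10^6 cells/well) treated with drug in DMSO, activated with anti-CD3/CD28 beads with antiretrovirals, harvested after 24 hours. TAR, LLTR, Pol, PolyA and TatRev transcripts measured by RT-ddPCR, normalized to 1 μg total RNA, expressed as % of activated DMSO control.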

[3] = system: PBMCs; assay: Cell viability by trypan blue staining after 24 hours; format: cell-based, human
Outline: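 PBMCs from ART-suppressed donors at 6 × 10^6 cells/well were activated with CD3/28 beads and cultured with antiretrovirals plus drug in DMSO. Viability counted by trypan blue after 24 hours. Values were normalized to the activated DMSO control.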

[4] = 5nM, 24 h after αCD3/28 activation, each column one participant

CO[C@H]([C@@H](C)[C@H]1O[C@]1(C)C[C@H](C)/C=C/C=C(\C)[C@H]1O[C@@H](CC(=O)O)CC[C@@H]1C)[C@@H](C)O [herboxidiene]
Cell viability (DMSO αCD3/28 = 100) [1]: 119.6 and 123.7 and 95.53 and 100.64 and 118.06 and 114.9 and 85 and 106.6 and 119.5
LLTR HIV transcripts (DMSO+αCD3/28 = 100) [2, 4]: 81.19 and 43.81 and 65.61 and 39.82 and 46.55 and 19.9 and 41.59
Pol HIV transcripts (DMSO+αCD3/28 = 100) [2, 4]: 51.16 and 73 and 22.91 and 16.22 and 3.35 and 168.38
TAR HIV transcripts (DMSO+αCD3/28 = 100) [2, 4]: 84.02 and 77.63 and 124.48 and 122.07 and 106.99 and 116.67
TatRev HIV transcripts (DMSO+αCD3/28 = 100) [2, 4]: 33.33 and 25.2 and 10.9 and 51.8 and 0 (2×)
HIV transcriptional elongation, ratio LLTR/TAR ([2]; 24 hours, compared with activated DMSO, Figure 3B): Significant reductions
Reduction of multiply spliced or completed HIV transcripts in drug screen (selection as candidate LPA) ([2]; initial screening, 2 participants, 24 hours): more than 50%
Multiply spliced (TatRev) HIV transcripts, median relative to activated DMSO, initial screening ([2]; initial screening, 2 participants, 24 hours, Figure 1B, Supplemental Figure 2): 23%
Pol HIV transcripts (DMSO αCD3/28 = 100) ([2]; participant 150b): 43.29
PolyA HIV transcripts (DMSO αCD3/28 = 100) ([2]; participant 150b): 23.53
TatRev HIV transcripts (DMSO αCD3/28 = 100) ([2]; participant 150b): 2.69
Pol HIV transcripts (DMSO αCD3/28 = 100) ([2]; participant 1379): 47.94
PolyA HIV transcripts (DMSO αCD3/28 = 100) ([2]; participant 1379): 28.08
TatRev HIV transcripts (DMSO αCD3/28 = 100) ([2]; participant 1379): 171.43
Pol HIV transcripts (DMSO αCD3/28 = 100) ([2]; participant 2027): 133.33
PolyA HIV transcripts (DMSO αCD3/28 = 100) ([2]; participant 2027): 36.92
TatRev HIV transcripts (DMSO αCD3/28 = 100) ([2]; participant 2027): 0
Pol HIV transcripts (DMSO αCD3/28 = 100) ([2]; participant 2147a): 105.88
PolyA HIV transcripts (DMSO αCD3/28 = 100) ([2]; participant 2147a): 21.76
TatRev HIV transcripts (DMSO αCD3/28 = 100) ([2]; participant 2147a): 28.42
Pol HIV transcripts (DMSO αCD3/28 = 100) ([2]; participant 2161): 169.45
PolyA HIV transcripts (DMSO αCD3/28 = 100) ([2]; participant 2161): 268.67
TatRev HIV transcripts (DMSO αCD3/28 = 100) ([2]; participant 2161): 176.87
Pol HIV transcripts (DMSO αCD3/28 = 100) ([2]; participant 2256): 18.46
PolyA HIV transcripts (DMSO αCD3/28 = 100) ([2]; participant 2256): 16.27
TatRev HIV transcripts (DMSO αCD3/28 = 100) ([2]; participant 2256): 1.4
PolyA HIV transcripts (DMSO αCD3/28 = 100) ([2]; participant 2461): 1692.31
Pol HIV transcripts (DMSO αCD3/28 = 100) ([2]; participant 5557): 23.16
PolyA HIV transcripts (DMSO αCD3/28 = 100) ([2]; participant 5557): 23.33
TatRev HIV transcripts (DMSO αCD3/28 = 100) ([2]; participant 5557): 0
Multiply spliced HIV transcripts (TatRev) (Fig 1B) ([2]; study participant 150a, 24 hours): 33.33 % of activated DMSO
PolyA ([2]; study participant 150a): 73.21
TatRev ([2]; study participant 150a): 33.33
LLTR/TAR ([2]; study participant 1379): 0.186
PolyA/LLTR ([2]; study participant 1379): 0.4248
TatRev/PolyA ([2]; study participant 1379): 0
PolyA ([2]; study participant 1379): 8.45
TatRev ([2]; study participant 1379): 0
LLTR/TAR ([2]; study participant 2027): 0.85
PolyA/LLTR ([2]; study participant 2027): 0.67
PolyA ([2]; study participant 2027): 43.76
Multiply spliced HIV transcripts (TatRev) (Fig 1B) ([2]; study participant 2147b, 24 hours): 12.13 % of activated DMSO
LLTR/TAR ([2]; study participant 2147b): 0.2964
PolyA/LLTR ([2]; study participant 2147b): 0.9546
TatRev/PolyA ([2]; study participant 2147b): 0.3499
PolyA ([2]; study participant 2147b): 22.4
TatRev ([2]; study participant 2147b): 10.9
LLTR/TAR ([2]; study participant 2256): 0.3813
PolyA/LLTR ([2]; study participant 2256): 0.9973
TatRev/PolyA ([2]; study participant 2256): 1.116
PolyA ([2]; study participant 2256): 46.43
TatRev ([2]; study participant 2256): 51.8
LLTR/TAR ([2]; study participant 2750): 0.5214
PolyA/LLTR ([2]; study participant 2750): 1.543
TatRev/PolyA ([2]; study participant 2750): 0.3728
PolyA ([2]; study participant 2750): 67.59
TatRev ([2]; study participant 2750): 25.2
LLTR/TAR ([2]; study participant 5557): 0.3565
PolyA/LLTR ([2]; study participant 5557): 0.117
TatRev/PolyA ([2]; study participant 5557): 0
PolyA ([2]; study participant 5557): 4.86
TatRev ([2]; study participant 5557): 0
Viability (Fig 1A) ([3]; study participant 150a): 99.57 % of activated DMSO
Viability (Fig 1A) ([3]; study participant 2147b): 98.97 % of activated DMSO
